Experimental data reported in the supplement of paper PMC7840683.
± gives the standard deviation of the averaged measurements.

Tested on: HepaRG
Assay: LDH release cytotoxicity, % of total lysis control; higher = more cytotoxic
Conditions: 48 h
How it was run: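 Single-lot HepaRG cells in collagen I-coated 96-well plates were treated for 48 h in serum-free induction medium containing 0.5% DMSO with test chemicals in eight-point half-log series up to 100 µM. For total lysis, wells received 0.1% Triton X. LDH in 50 µL spent medium was assayed by resorufin fluorescence with CytoTox-ONE. Percent cytotoxicity was normalized to the on-plate vehicle and total lysis controls, with duplicates averaged.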

O=C(NC(=O)c1cc(F)c(F)cc1Cl)Nc1cc(F)ccc1N1CCC(C(=O)O)CC1 [AVE2865]
Conditions	LDH release cytotoxicity [%]
0.01581 µM	0.296 ± 0.54
0.05 µM	-1.08 ± 0.4
0.1581139 µM	-1.31 ± 0.41
0.5 µM	-0.965 ± 0.11
1.5811388 µM	-1.15 ± 0.067
5 µM	-0.168 ± 0.023
15.8114 µM	0.386 ± 0.34
50 µM	0.68 ± 0.52

CC(C)(C)c1csc(-c2cc3cc(OCc4ccccc4CC(=O)O)ccc3o2)n1
Conditions	LDH release cytotoxicity [%]
0.031623 µM	1.06 ± 0.28
0.1 µM	-2.14 ± 0.54
0.316228 µM	-2.66 ± 0.65
1 µM	-2.18 ± 0.68
3.16228 µM	-2.37 ± 0.089
10 µM	-3.649 ± 0.015
31.6228 µM	-2.7 ± 0.72
100 µM	64 ± 7

CCCCCCCCOc1ccc(C(=O)c2ccccc2)c(O)c1 [Octabenzone]
Conditions	LDH release cytotoxicity [%]
0.03162 µM	-0.784 ± 0.38
0.1 µM	-1.09 ± 0.34
0.3162278 µM	-0.164 ± 0.29
1 µM	0.7228 ± 0.0064
3.16228 µM	0.706 ± 0.87
10 µM	0.678 ± 2.1
31.6228 µM	1.22 ± 0.62
100 µM	1.8 ± 0.62

CC1(c2ccc(Oc3ccccc3)cc2)OC(=O)N(Nc2ccccc2)C1=O (configuration not stated) [Famoxadone]
Conditions	LDH release cytotoxicity [%]
0.0317809 µM	-0.255 ± 0.56
0.1005 µM	-1.03 ± 0.34
0.317809 µM	-0.879 ± 1.4
1.005 µM	-1.52 ± 0.023
3.17809 µM	-2.56 ± 0.49
10.05 µM	10.7 ± 2.7
31.7809 µM	18.1 ± 3.1
100.5 µM	64.5 ± 2.4

CCC(NC(=O)c1cc(F)ccc1NS(=O)(=O)c1cccc2cccnc12)c1ccccc1 (configuration not stated) [AVE3295]
Conditions	LDH release cytotoxicity [%]
0.0301998 µM	-1.81 ± 0.3
0.0955 µM	-1.66 ± 1.1
0.301997 µM	-1.7 ± 0.59
0.955 µM	-1.55 ± 0.55
3.01998 µM	-1.75 ± 0.27
9.55 µM	-2.12 ± 0.47
30.199752 µM	-1.2 ± 0.89
95.5 µM	4.69 ± 0.74

CCOC(=O)C(C)Oc1ccc(Oc2nc3ccc(Cl)cc3o2)cc1 (configuration not stated) [Fenoxaprop-ethyl]
Conditions	LDH release cytotoxicity [%]
0.03162 µM	-2.02 ± 0.53
0.1 µM	-2.51 ± 0.57
0.3162278 µM	-2.8 ± 0.91
1 µM	-2.59 ± 1
3.16228 µM	-2.21 ± 0.26
10 µM	-2.46 ± 0.87
31.6228 µM	-1.44 ± 0.15
100 µM	-1.21 ± 0.54

CCc1cccc(C)c1N(C(=O)CCl)C(C)COC (configuration not stated) [Metolachlor]
Conditions	LDH release cytotoxicity [%]
0.03162 µM	-2.35 ± 0.41
0.1 µM	-1.88 ± 0.93
0.3162278 µM	-2.04 ± 0.75
1 µM	-1.88 ± 0.4
3.16228 µM	-1.33 ± 0.23
10 µM	-1.85 ± 1.5
31.6228 µM	-1.51 ± 0.46
100 µM	-1.21 ± 0.023

CCCCc1nc2cccnc2n1Cc1ccc(-c2ccccc2-c2nnn[nH]2)cc1
Conditions	LDH release cytotoxicity [%]
0.03162 µM	-0.82 ± 0.17
0.1 µM	-1.42 ± 0.13
0.3162278 µM	-0.874 ± 0.059
1 µM	-0.211 ± 0.38
3.16228 µM	-0.956 ± 0.67
10 µM	-0.404 ± 0.78
31.6228 µM	-0.609 ± 1.2
100 µM	1.6 ± 1.9

CCC(C)C(=O)OC1CC(C)C=C2C=CC(C)C(CCC3CC(O)CC(=O)O3)C21 (configuration not stated) [Lovastatin]
Conditions	LDH release cytotoxicity [%]
0.031623 µM	-0.879 ± 0.35
0.1 µM	-2.24 ± 2.7
0.316228 µM	-3.24 ± 1.1
1 µM	-3.8 ± 0.94
3.16228 µM	-3.98 ± 0.75
10 µM	-3.52 ± 0.1
31.6228 µM	-3.4 ± 0.086
100 µM	1.06 ± 0.76
